Consider 10 molecules from patent US8519149B2, “Tricyclic compounds as mPGES-1 inhibitors” (Glenmark Pharmaceuticals S.A., priority 2010, dated 2013).

The experiment addresses T1, Recombinant human mPGES-1 (Homo sapiens, UniProt O14684).
T1 sequence (O14684 1-152): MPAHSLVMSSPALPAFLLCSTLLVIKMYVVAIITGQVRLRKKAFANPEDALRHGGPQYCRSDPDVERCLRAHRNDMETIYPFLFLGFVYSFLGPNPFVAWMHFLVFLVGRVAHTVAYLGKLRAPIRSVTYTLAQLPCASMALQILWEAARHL
Description: In-vitro mPGES-1 enzyme inhibition assay (PGE2 formation from PGH2, HTRF detection). Format: biochemical. The conditions noted are these: for inhibition at 1 µM: read-out: Percentage inhibition at 1 μM; for inhibition at 10 µM: 10 μM test compound, read-out: Percentage inhibition at 10 μM; for IC50: class symbols, selected examples. The text has this:
In-Vitro Protocol for Screening of mPGES-1 Inhibitors: mPGES-1 (microsomal prostaglandin E synthase-1) is a microsomal enzyme that converts endoperoxide substrate PGH2 (prostaglandin H2) to product PGE2 (prostaglandin E2) by isomerization in the presence of reduced glutathione (GSH). mPGES-1 inhibitors were screened by assessing their ability to inhibit formation of PGE2 from PGH2 in presence of mPGES-1 using anti-PGE2 antibody based detection method. […] Assay was set up using crude microsomal fractions at protein concentration of 40-60 μg/mL. […] Final concentration of DMSO in reaction was 0.5% (v/v). Negative controls comprised of all assay reagents except the enzyme. Positive controls comprised of enzyme reaction in the absence of any inhibitor. […] Reaction was stopped by addition of Stannous chloride (11 mg/ml) and PGE2 levels were measured ([…] et al. […] Inhibition of mPGES-1 enzyme activity was measured using percent of reaction occurring in the positive control. Concentration response curves were plotted using percent inhibition of maximum enzyme reaction. IC50 value was calculated from concentration response curve by nonlinear regression analysis using GraphPad PRISM software.

The mark [1] stands for this setting: 1 μM test compound, recombinant human mPGES-1 microsomal fraction.
[2] abbreviates: recombinant human mPGES-1 microsomal fraction.

The structures appear in SMILES notation.

Regarding `CC1(C)Cc2c(c(C(=O)NCc3ccccc3C(F)(F)F)cc3nc(Nc4c(Cl)cncc4Cl)[nH]c23)O1` [Example-2, 2-[(3,5-Dichloropyridin-4-yl)amino]-7,7-dimethyl-N-[2-(trifluoromethyl)benzyl]-7,8-dihydro-1H-furo[3,2-e]benzimidazole-5-carboxamide], the concentration for half-maximal inhibition (IC50) (in general, the midpoint of a concentration-inhibition curve) is < 50 nM. Moreover, under setting [1], the inhibition (in general, how much of the control response was suppressed) at 1 µM is 97%. Besides, the inhibition at 10 µM under setting [2] is 99.6%.
Take `CCCCCCNC(=O)c1cc2nc(Nc3c(Cl)cncc3Cl)[nH]c2c2c1OC(C)(C)C2` [Example-3, 2-[(3,5-Dichloropyridin-4-yl)amino]-N-hexyl-7,7-dimethyl-7,8-dihydro-1H-furo[3,2-e]benzimidazole-5-carboxamide]: the IC50 was < 50 nM. Besides, the inhibition at 1 µM under setting [1] was determined as 99.1%. The inhibition at 10 µM under setting [2] was 99.5%.
Regarding `CCCCCNC(=O)c1cc2nc(Nc3c(Cl)cncc3Cl)[nH]c2c2c1OC(C)(C)C2` [Example-4, 2-[(3,5-Dichloropyridin-4-yl)amino]-7,7-dimethyl-N-pentyl-7,8-dihydro-1H-furo[3,2-e]benzimidazole-5-carboxamide], the IC50 was < 50 nM. Further, the inhibition at 1 µM under setting [1] was 94.4%. The inhibition at 10 µM under setting [2] was determined as 95%.
Consider `CC(NC(=O)c1cc2nc(Nc3c(Cl)cncc3Cl)[nH]c2c2c1OC(C)(C)C2)C1CCCCC1` (stereo not drawn) [Example-5, N-(1-Cyclohexylethyl)-2-[(3,5-dichloropyridin-4-yl)amino]-7,7-dimethyl-7,8-dihydro-1H-furo[3,2-e]benzimidazole-5-carboxamide], for which the IC50 was < 50 nM. Under setting [1], the inhibition at 1 µM came to 97.7%. Further, the inhibition at 10 µM under setting [2] was 97.8%.
The like results for `C[C@@H](NC(=O)c1cc2nc(Nc3c(Cl)cncc3Cl)[nH]c2c2c1OC(C)(C)C2)C(C)(C)C` [Example-6] were, in that order, < 50 nM, 93.4% and 95.5%.
Consider `CC1(C)Cc2c(c(C(=O)NC3CCCCC3)cc3nc(Nc4c(Cl)cccc4Cl)[nH]c23)O1` [Example-7, N-Cyclohexyl-2-[(2,6-dichlorophenyl)amino]-7,7-dimethyl-7,8-dihydro-1H-furo[3,2-e]benzimidazole-5-carboxamide], for which the 50% inhibitory concentration (IC50) is < 50 nM. Moreover, the inhibition at 1 µM under setting [1] was 100%. In addition, the inhibition at 10 µM under setting [2] was 96.2%.
The like results for `CC1(C)Cc2c(c(C(=O)Nc3ccc(Br)cc3)cc3nc(Nc4c(Cl)cncc4Cl)[nH]c23)O1` [Example-8, N-(4-Bromophenyl)-2-[(3,5-dichloropyridin-4-yl)amino]-7,7-dimethyl-7,8-dihydro-1H-furo[3,2-e]benzimidazole-5-carboxamide] were, in that order, < 50 nM, 92.6% and 90.1%.
In the case of `CCCCCNC(=O)c1cc2nc(Nc3c(Cl)cccc3Cl)[nH]c2c2c1OC(C)(C)C2` [Example-9, 2-[(2,6-Dichlorophenyl)amino]-7,7-dimethyl-N-pentyl-7,8-dihydro-1H-furo[3,2-e]benzimidazole-5-carboxamide], the IC50 was < 50 nM. Moreover, the inhibition at 1 µM under setting [1] was found to be 83%. The inhibition at 10 µM under setting [2] turned out to be 83.1%.
As for `CC1(C)Cc2c(c(C(=O)Nc3ccc(C(F)(F)F)cc3)cc3nc(Nc4c(Cl)cncc4Cl)[nH]c23)O1` [Example-10, 2-[(3,5-Dichloropyridin-4-yl)amino]-7,7-dimethyl-N-[4-(trifluoromethyl)phenyl]-7,8-dihydro-1H-furo[3,2-e]benzimidazole-5-carboxamide], the inhibition at 1 µM under setting [1] is 83.4%. Further, the inhibition at 10 µM under setting [2] turned out to be 91.8%.
In the case of `CC1(C)Cc2c(c(C(=O)Nc3ccc(Br)cc3)cc3nc(Nc4c(Cl)cccc4Cl)[nH]c23)O1` [Example-11, N-(4-Bromophenyl)-2-[(2,6-dichlorophenyl)amino]-7,7-dimethyl-7,8-dihydro-1H-furo[3,2-e]benzimidazole-5-carboxamide], the IC50 was < 50 nM. In addition, the “Percentage inhibition at 1 μM” value (1 μM test compound, recombinant human mPGES-1 microsomal fraction, 1 µM) was 97.45%. Further, the inhibition at 1 µM under setting [1] amounted to 100%. Moreover, under setting [2], the inhibition at 10 µM was determined as 100%.
